The text below walks through data of paper PMC11403612, “Preparation and Preclinical Characterization of a Simple Ester for Dual Exogenous Supply of Lactate and Beta-hydroxybutyrate” (Journal of Agricultural and Food Chemistry, 2024).

Data set [1] is described as follows: Short-term pharmacokinetics of LaKe in rats (BHB and lactate levels). In kind it is in vivo, Sprague–Dawley rats. The conditions noted are these: 4.5 g/kg oral. Here is the method:
Male Sprague–Dawley rats (300–350g, Taconic, Ry, Denmark) were kept for acclimatization at a constant temperature of 23 °C with a 12 h light-dark cycle and with unlimited access to food and water. All animal handling was in accordance with national guidelines in Denmark and the guidelines from the Directive 2010/63/EU of the European Parliament on the protection of animals used for scientific purposes, and all experiments conformed to Danish Law (Act. No. 1306 of 23/11/2007). The experimental protocol was approved by the Danish Animal Expectorate (2018-15-0201-01475).
The rats were randomly selected to receive either LaKe (n = 8) or placebo (n = 8).
Rats were anesthetized in an induction chamber with 8% Sevoflurane (Sevorane, AbbVIE A/S, Copenhagen, Denmark) mixed with oxygen saturated atmospheric air (flow: 2.0 L/min). Upon achieved anesthesia, the rats were intubated and connected to a mechanical ventilator (Ugo Basile 7025 rodent ventilator, Comerio, Varese, Italy) with an adjusted flow of 1.0L/min with 3.5% Sevoflurane. Body temperature was kept at a constant of 37 ± 1 °C with a temperature probe (UNO, Zevenaar, Holland). A PTFE-coated flexible orogastric tube (Fuchigami, Japan) was placed, and the rat was left for stabilization for 15 min. […]
Short term pharmacokinetics of LaKe in rats – Detailed protocols for LC-MS/MS and FFA analyses BHB quantification by LC-MS/MS […]

The test system of a further data set is rats. As to the kind of experiment: Behaviour and tolerability observations in extended pharmacokinetics study. The class given is in vivo. Here is the method:
Animals (SD rats, both male and female, 7–9 weeks) were individually housed from 24 h before dosing until the end of the study. Food was withdrawn the night before initiation of study; following food withdrawal, animals were maintained on glucose water containing 5% w/v glucose and 1% saline to suppress endogenous ketone production throughout the study. Food was returned 8 h post-test article dosing. Animals were monitored for distress or notable changes in behavior during the study. The animals were euthanized by CO2 inhalation 2 h after the last sample collection time point.

As to `CC(O)CCOC(=O)C(C)O` (stereo not drawn) [LaKe, 3-hydroxybutyl 2-hydroxypropanoate], in data set [1], the “BHB levels at 120 min” value is reported as “remained elevated”. In addition, in data set [1], the “lactate levels at 120 min” value is listed as “largely back at the baseline level”. The behaviour observations entry in the data set on rats (12 g/kg, at 2 and 8 h following administration, some of the rats, normalized at 10 h) is “slightly reduced activity and a hunched posture”; in the data set with rats (lower doses (1.3 g/kg and 4.1 g/kg), all time points), “normal behavior was observed at all time points”. Further, in the data set with rats (10 h following administration, any of the doses), the signs of toxicity entry is recorded as “No signs of toxicity or deviation from normal behavior”. Further, in the data set with rats (rats, oral, up to 12 g/kg), the overall tolerability result is recorded as “well tolerated”.
